From patent publication EP0852225B1, “FIBRINOGEN RECEPTOR ANTAGONISTS AND MEDICINAL PREPARATIONS CONTAINING THE SAME AS THE ACTIVE INGREDIENT” (NIPPON STEEL CORPORATION, priority 1996, dated 1997) come the findings set out here.

The term IC50 denotes the concentration that gives 50% inhibition. Read a high IC50 as weaker potency.

Test system in one data set: not listed separately
As to the kind of experiment: Oral administration test: time course of the concentration in plasma after oral administration. It is filed as in vivo. The following applies: male SD rats, 10 mg per kg, 30, 60 and 120 minutes after administration, HPLC, mean of three rats. The protocol: Male SD rats which had been starved from the previous day were used in this experiment. Two test substances, the compounds of Example 4 and Comparative Example 1, were dissolved in distilled water and administered into the stomach of rats with an oral probe. Each compound was administered to each rat in an amount of 10 mg per kg of body weight. Blood samples were collected 30, 60 and 120 minutes after the administration. The concentration of each compound which was in an active state (i.e., free carboxylic acid) in plasma was determined by HPLC.
In this Figure, the horizontal axis represents the time after the oral administration and the vertical axis represents the concentration of the active form of each compound in plasma. Each point represents the mean value for three rats and the standard error. […] When the peak values at 30 minutes after the oral administration are compared, the difference was about 10 times as great.
As for `CCC(NC(=O)c1ccc(C(=N)N2CCOCC2)cc1F)C(C)(C)C(=O)N1CCC(CC(=O)O)CC1` (stereo not drawn) [Example 4, N-{N-(4-(4-morpholinoimidoyl)-2-fluorobenzoyl)-β-ethyl-α,α-dimethyl-β-alanyl)-4-piperidineacetic acid], the “concentration of the active form (free carboxylic acid) in plasma, compared with Comparative Example 1” value is given as “significantly higher concentration in plasma than the compound of Comparative Example 1 at every point of determination”.

The test system of the next data set is Human Platelet Aggregation. As to the kind of experiment: Measurement of in vitro human platelet aggregation using PRP (collagen-induced, aggregometer light transmittance). The following applies: platelet aggregation inhibition in human PRP; collagen final concentration 5 µg/ml; 37°C. The format is cell-based. The protocol:
Healthy male volunteers who had not taken any medicines for at least two weeks were selected as subjects. Blood was collected from the forearm vein of each subject on an empty stomach using a #19 needle and a plastic syringe preliminarily charged with 1/10 volume of a 3.8% sodium citrate solution. Immediately after the blood collection, the syringe was shaken gently to mix the blood with the sodium citrate solution. The mixed blood was centrifuged (1100 rpm, 250 g) at room temperature for 15 minutes and the rotation was stopped without applying the brake. Then, the supernatant was collected with a graduated pipette to obtain platelet-rich plasma (PRP). The PRP was stored at room temperature. The blood remaining after the centrifugation was further centrifuged (3500 rpm, 1500 g) at room temperature for 15 minutes and the rotation was stopped without applying the brake. The supernatant was collected to obtain platelet-poor plasma (PPP). After the preparation of the PRP, the number of platelets was counted and only samples containing 2 x 10^8 or more of platelets per milliliter were subjected to the following experiments.
Platelet aggregation was measured using an 8-channel aggregometer (Hematracer, Nikoh Bioscience, Tokyo, Japan) on the basis of the change in light transmittance through the PRP as follows.
First, the PPP and PRP (each 200 µl) were placed in glass cuvettes and incubated at 37°C. Thereafter, the transmittance was measured. The transmittance of the PPP was defined as 100% and that of the PRP as 0%.
Then, 10 µl of physiological saline or a sample-containing physiological saline was added to the PRP and incubated at 37°C for one minute. A collagen solution (10 µl) at a concentration of 100 µg/ml was added to the PRP-containing solution (final concentration: 5 µg/ml) to induce aggregation and thereafter the transmittance was measured over 7 minutes. After the aggregation with collagen and ADP was confirmed, only those samples in which the maximum percent aggregation with collagen was at least 70% were subjected to the experiment.
The sample was dissolved in physiological saline to give a concentration of 2.2 x 10^-2 M and a 2-fold dilution series was prepared for use in the experiments. The samples insoluble in the physiological saline were dissolved in physiological saline containing 10% DMSO (dimethyl sulfoxide).
The results were calculated as follows: Percent Aggregation inhibition =(Maximum percent aggregation upon the addition of sample)/(Maximum percent aggregation upon the addtion of physiological saline) [formula]
A graph was constructed by plotting the percent of aggregation inhibition against the sample concentration and the concentration at which the aggregation was inhibited by 50% (IC50) was calculated from the graph.
Compound `CCC(NC(=O)c1ccc(C(=N)N2CCOCC2)cc1)C(C)(C)C(=O)N1CCC(CC(=O)O)CC1` (stereo not drawn) [Example 2, N-(N-(9-(4-morpholinoimidoyl)benzoyl)-β-ethyl-α,α-dimethyl-β-alanyl)-4-piperidineacetic acid] came in with an IC50 of 220 nM. Still for that read-out and setting: for `CCC(NC(=O)c1ccc(C(=N)N2CCOCC2)cc1F)C(C)(C)C(=O)N1CCC(CC(=O)O)CC1` (stereo not drawn) [Example 4, N-{N-(4-(4-morpholinoimidoyl)-2-fluorobenzoyl)-β-ethyl-α,α-dimethyl-β-alanyl)-4-piperidineacetic acid] the value was 150 nM; for `CCC(NC(=O)c1ccc(C(=N)N2CCCCC2)cc1F)C(C)(C)C(=O)N1CCC(CC(=O)O)CC1` (stereo not drawn) [Example 8, N-(N-(4-(1-piperidinoimidoyl)-2-fluorobenzoyl)-β-ethyl-α,α-dimethyl-β-alanyl)-4-piperidineacetic acid], 220 nM. The same measure, in the same setting: the same measure for `CCC(NC(=O)c1ccc(C(=N)N2CCCC2)cc1F)C(C)(C)C(=O)N1CCC(CC(=O)O)CC1` (stereo not drawn) [Example 10, N-(N-(4-(1-pyrrolidinoimidoyl)-2-fluorobenzoyl)-β-ethyl-α,α-dimethyl-β-alanyl)-4-piperidineacetic acid]: 87 nM; for `CCC(NC(=O)c1ccc(C(=N)N2CCC(=O)CC2)cc1F)C(C)(C)C(=O)N1CCC(CC(=O)O)CC1` (stereo not drawn) [Example 12, N-(N-(4-(1-4-piperidonoimidoyl)-2-fluorobenzoyl)-β-ethyl-α,α-dimethyl-β-alanyl)-4-piperidineacetic acid]: 120 nM.

`CCC(NC(=O)c1ccc(C(=N)N2CCC(O)CC2)cc1F)C(C)(C)C(=O)N1CCC(CC(=O)O)CC1` (stereo not drawn) [Example 14, N-(N-(4-(4-hydroxy-1-piperidinoimidoyl)-2-fluorobenzoyl)-β-ethyl-α,α-dimethyl-β-alanyl)-4-piperidineacetic acid]: 52 nM corresponded to half-maximal inhibition (IC50). The same measure, in the same setting: the same measure for `CCC(NC(=O)c1ccc(C(=N)N2CCSC2)cc1F)C(C)(C)C(=O)N1CCC(CC(=O)O)CC1` (stereo not drawn) [Example 16, N-(N-(4-(3-thizolidinoimidoyl)-2-fluorobenzoyl)-β-ethyl-α,α-dimethyl-β-alanyl)-4-piperidineacetic acid]: 43 nM; for `CCC(NC(=O)c1ccc(C(=N)N2CCCCCC2)cc1F)C(C)(C)C(=O)N1CCC(CC(=O)O)CC1` (stereo not drawn) [Example 18, N-(N-(4-(1-hexamethyleneiminoimidoyl)-2-fluorobenzoyl)-β-ethyl-α,α-dimethyl-β-alanyl)-4-piperidineacetic acid]: 230 nM. Same read-out and setting: the same measure for `CCC(NC(=O)c1ccc(C(=N)N2CCSCC2)cc1F)C(C)(C)C(=O)N1CCC(CC(=O)O)CC1` (stereo not drawn) [Example 20, N-(N-(4-(N-thiomorpholinoimidoyl)-2-fluorobenzoyl)-β-ethyl-α,α-dimethyl-β-alanyl)-4-piperidineacetic acid]: 120 nM; for `CCC(NC(=O)c1ccc(C(=N)N2CCN(C)CC2)cc1F)C(C)(C)C(=O)N1CCC(CC(=O)O)CC1` (stereo not drawn) [Example 22, N-(N-(4-(4-methyl-1-piperazinoimidoyl)-2-fluorobenzoyl)-β-ethyl-α,α-dimethyl-β-alanyl)-4-piperidineacetic acid]: 69 nM. On the same count and under the same terms, for `CCC(NC(=O)c1ccc(C(=N)N2CCN(c3ccccc3)CC2)cc1F)C(C)(C)C(=O)N1CCC(CC(=O)O)CC1` (stereo not drawn) [Example 24, N-(N-(4-(4-phenyl-1-piperazinoimidoyl)-2-fluorobenzoyl)-β-ethyl-α,α-dimethyl-β-alanyl)-4-piperidineacetic acid] the value was 57 nM; for `CCC(NC(=O)c1ccc(C(=N)N2CCN(c3ccc(F)cc3)CC2)cc1F)C(C)(C)C(=O)N1CCC(CC(=O)O)CC1` (stereo not drawn) [Example 26, N-(N-(4-(4-(4-fluorophenyl)-1-piperazinoimidoyl)-2-fluorobenzoyl)-β-ethyl-α,α-dimethyl-β-alanyl)-4-piperidineacetic acid], 87 nM; for `CC(C)(C(=O)N1CCC(CC(=O)O)CC1)C(NC(=O)c1ccc(C(=N)N2CCOCC2)cc1)c1ccccc1` (centres unmarked) [Example 28], 240 nM.
